Assay results from patent US20250263390A1, “NOVEL SUBSTITUTED 6,7-DIHYDRO-5H-BENZO[7]ANNULENE COMPOUNDS AND THEIR DERIVATIVES, PROCESSES FOR THEIR PREPARATION AND THERAPEUTIC USES THEREOF” (SANOFI, priority 2022, published 2025).

Biological target: T1, ERα (Homo sapiens, UniProt P03372)
T1 construct: host or cells: MCF7
T1 sequence (P03372 1-595): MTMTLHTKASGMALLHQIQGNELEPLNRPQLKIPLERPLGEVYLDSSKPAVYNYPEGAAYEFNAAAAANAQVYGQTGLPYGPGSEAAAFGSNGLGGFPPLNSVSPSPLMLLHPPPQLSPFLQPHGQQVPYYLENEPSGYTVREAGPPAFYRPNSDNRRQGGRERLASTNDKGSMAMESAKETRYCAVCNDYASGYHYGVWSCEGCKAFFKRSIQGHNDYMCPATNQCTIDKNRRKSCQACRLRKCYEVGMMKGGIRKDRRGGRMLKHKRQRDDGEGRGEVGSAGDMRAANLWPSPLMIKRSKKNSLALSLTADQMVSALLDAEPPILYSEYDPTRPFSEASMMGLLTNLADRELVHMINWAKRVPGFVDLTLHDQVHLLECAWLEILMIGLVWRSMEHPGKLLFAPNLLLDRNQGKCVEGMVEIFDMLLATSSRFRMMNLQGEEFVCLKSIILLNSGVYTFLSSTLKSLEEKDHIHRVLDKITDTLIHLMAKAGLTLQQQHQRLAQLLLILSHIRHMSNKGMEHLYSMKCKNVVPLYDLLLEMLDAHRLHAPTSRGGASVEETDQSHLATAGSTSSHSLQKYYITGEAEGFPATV
Assay: Estrogen receptor degradation activity: breast cancer cell ERα in cell western assay
Assay type: cell-based
Conditions: MCF7 cells, 4 hours, relative to fulvestrant 0.1 μM positive control
Protocol: Test: Estrogen Receptor Degradation Activity Said test involves measuring the in vitro degradation activity of the compounds of the Table 1a. The measurements of the degradation activities were made using a breast cancer cell ERα in cell western assay as described hereunder. MCF7 cells (ATCC) were seeded in 384 wells microplate (collagen coated) at a concentration of 10000 cells/30 μL per well in red phenol free MEM alpha medium (invitrogen) containing 5% charcoal dextran striped FBS. The following day, 9 points serial 1:5 dilution of each compound was added to the cells in 2.5p L at final concentrations ranging from 0.3-0.0000018 μM (in table 2), or 0.1 μM for fulvestrant (using as positive control). At 4 hours post compound addition the cells were fixed by adding 25 μL of formalin (final concentration 5% formalin containing 0.1% triton) for 10 minutes at room temperature and then washed twice with PBS. Then, 50 μL of LI-COR blocking buffer containing 0.1% Triton was added to plate for 30 minutes at room temperature. LI-COR blocking buffer was removed and cells were incubated overnight at cold room with 50 μL anti-ER rabbit monoclonal antibody (Thermo scientific MA1-39540) diluted at 1:1000 in LI-COR blocking buffer containing 0.1% tween-20. Wells which were treated with blocking buffer but no antibody were used as background control. Wells were washed twice with PBS (0.1% tween-20) and incubated at 37° C. for 60 minutes in LI-COR (0.1% tween-20) containing goat anti-rabbit antibody Alexa 488 (1:1000) and Syto-64 a DNA dye (2 μM final concentration). Cells were then washed 3 times in PBS and scanned in ACUMEN explorer (TTP-Labtech). Integrated intensities in the green fluorescence and red fluorescence were measured to determine the levels of ERα and DNA respectively. The degradation activity with respect to estrogen receptors in this test is given by the concentration which degrades 50% of the estrogen receptor (or IC50) in nM. The % of ERα levels decrease were determined as follows: % inhibition=100*(1−(sample−fulvestrant: DMSO−fulvestrant)).

% Degradation At 0.3 μM	Structure (SMILES)
90%	Cc1c(O)cccc1C1=C(c2ccc(CC3CN(CCCF)C3)cc2)c2ccc(C(=O)O)cc2CCC1.Cl [Compound 61, 9-(4-((1-(3-fluoropropyl)azetidin-3-yl)methyl)phenyl)-8-(3-hydroxy-2-methylphenyl)-6,7-dihydro-5H-benzo[7]annulene-3-carboxylic acid, hydrochloride]
90%	Cc1cccc(C(F)F)c1C1=C(c2ccc(CC3CN(CCCF)C3)cc2)c2ccc(C(=O)O)cc2CCC1 [Compound 66, 8-(2-(difluoromethyl)-6-methylphenyl)-9-(4-((1-(3-fluoropropyl)azetidin-3-yl)methyl)phenyl)-6,7-dihydro-5H-benzo[7]annulene-3-carboxylic acid]
88%	Cc1cc(C)c(C2=C(c3ccc(CC4CN(CCCF)C4)cc3)c3ccc(C(=O)O)cc3CCC2)c(Cl)c1 [Compound 53, 8-(2-chloro-4,6-dimethylphenyl)-9-(4-((1-(3-fluoropropyl)azetidin-3-yl)methyl)phenyl)-6,7-dihydro-5H-benzo[7]annulene-3-carboxylic acid]
90%	Cc1ccc(C2=C(c3ccc(CC4CN(CCCF)C4)cc3)c3ccc(C(=O)O)cc3CCC2)c(C)c1Cl [Compound 58, 8-(3-chloro-2,4-dimethylphenyl)-9-(4-((1-(3-fluoropropyl)azetidin-3-yl)methyl)phenyl)-6,7-dihydro-5H-benzo[7]annulene-3-carboxylic acid]
91%	Cc1cc(C2=C(c3ccc(CC4CN(CCCF)C4)cc3)c3ccc(C(=O)O)cc3CCC2)ccc1C(F)F.Cl [Compound 42, 8-(4-(difluoromethyl)-3-methylphenyl)-9-(4-((1-(3-fluoropropyl)azetidin-3-yl)methyl)phenyl)-6,7-dihydro-5H-benzo[7]annulene-3-carboxylic acid, hydrochloride]
91%	Cc1cccc(Cl)c1C1=C(c2ccc(CC3CN(CCCF)C3)cc2)c2ccc(C(=O)O)cc2CCC1.Cl [Compound 40, 8-(2-chloro-6-methylphenyl)-9-(4-((1-(3-fluoropropyl)azetidin-3-yl)methyl)phenyl)-6,7-dihydro-5H-benzo[7]annulene-3-carboxylic acid, hydrochloride]
94%	CCc1c(F)cccc1C1=C(c2ccc(CC3CN(CCCF)C3)cc2)c2ccc(C(=O)O)cc2CCC1 [Compound 37, 8-(2-ethyl-3-fluorophenyl)-9-(4-((1-(3-fluoropropyl)azetidin-3-yl)methyl)phenyl)-6,7-dihydro-5H-benzo[7]annulene-3-carboxylic acid]
92%	COc1c(C)cccc1C1=C(c2ccc(CC3CN(CCCF)C3)cc2)c2ccc(C(=O)O)cc2CCC1.Cl [Compound 49, 9-(4-((1-(3-fluoropropyl)azetidin-3-yl)methyl)phenyl)-8-(2-methoxy-3-methylphenyl)-6,7-dihydro-5H-benzo[7]annulene-3-carboxylic acid, hydrochloride]
92%	CCc1c(Cl)cccc1C1=C(c2ccc(CC3CN(CCCF)C3)cc2)c2ccc(C(=O)O)cc2CCC1 [Compound 38, 8-(3-chloro-2-ethylphenyl)-9-(4-((1-(3-fluoropropyl)azetidin-3-yl)methyl)phenyl)-6,7-dihydro-5H-benzo[7]annulene-3-carboxylic acid]
93%	Cc1cc(C2=C(c3ccc(CC4CN(CCCF)C4)cc3)c3ccc(C(=O)O)cc3CCC2)ccc1C(F)(F)F [Compound 26, 9-(4-((1-(3-fluoropropyl)azetidin-3-yl)methyl)phenyl)-8-(3-methyl-4-(trifluoromethyl)phenyl)-6,7-dihydro-5H-benzo[7]annulene-3-carboxylic acid]
91%	Cc1ccc(C(F)F)c(C2=C(c3ccc(CC4CN(CCCF)C4)cc3)c3ccc(C(=O)O)cc3CCC2)c1 [Compound 23, 8-(2-(difluoromethyl)-5-methylphenyl)-9-(4-((1-(3-fluoropropyl)azetidin-3-yl)methyl)phenyl)-6,7-dihydro-5H-benzo[7]annulene-3-carboxylic acid]
91%	COc1cc(C)cc(C)c1C1=C(c2ccc(CC3CN(CCCF)C3)cc2)c2ccc(C(=O)O)cc2CCC1 [Compound 72, 9-(4-((1-(3-fluoropropyl)azetidin-3-yl)methyl)phenyl)-8-(2-methoxy-4,6-dimethylphenyl)-6,7-dihydro-5H-benzo[7]annulene-3-carboxylic acid]

Continued, compound first:

Structure (SMILES)	% Degradation At 0.3 μM
CCc1ccc(C2=C(c3ccc(CC4CN(CCCF)C4)cc3)c3ccc(C(=O)O)cc3CCC2)c(C(F)(F)F)c1 [Compound 70, 8-(4-ethyl-2-(trifluoromethyl)phenyl)-9-(4-((1-(3-fluoropropyl)azetidin-3-yl)methyl)phenyl)-6,7-dihydro-5H-benzo[7]annulene-3-carboxylic acid]	92%
COc1cc(C)c(C2=C(c3ccc(CC4CN(CCCF)C4)cc3)c3ccc(C(=O)O)cc3CCC2)c(C)c1 [Compound 55, 9-(4-((1-(3-fluoropropyl)azetidin-3-yl)methyl)phenyl)-8-(4-methoxy-2,6-dimethylphenyl)-6,7-dihydro-5H-benzo[7]annulene-3-carboxylic acid]	95%
Cc1cc(C2=C(c3ccc(CC4CN(CCCF)C4)cc3)c3ccc(C(=O)O)cc3CCC2)cc(C(F)(F)F)c1.Cl [Compound 34, 9-(4-((1-(3-fluoropropyl)azetidin-3-yl)methyl)phenyl)-8-(3-methyl-5-(trifluoromethyl)phenyl)-6,7-dihydro-5H-benzo[7]annulene-3-carboxylic acid, hydrochloride]	90%
COc1ccc(C2=C(c3ccc(CC4CN(CCCF)C4)cc3)c3ccc(C(=O)O)cc3CCC2)c(C(F)F)c1 [Compound 24, 8-(2-(difluoromethyl)-4-methoxyphenyl)-9-(4-((1-(3-fluoropropyl)azetidin-3-yl)methyl)phenyl)-6,7-dihydro-5H-benzo[7]annulene-3-carboxylic acid]	92%
COc1ccc(C2=C(c3ccc(CC4CN(CCCF)C4)cc3)c3ccc(C(=O)O)cc3CCC2)cc1OC [Compound 71, 8-(3,4-dimethoxyphenyl)-9-(4-((1-(3-fluoropropyl)azetidin-3-yl)methyl)phenyl)-6,7-dihydro-5H-benzo[7]annulene-3-carboxylic acid]	96%
CCc1cc(C(F)(F)F)ccc1C1=C(c2ccc(CC3CN(CCCF)C3)cc2)c2ccc(C(=O)O)cc2CCC1 [Compound 69, 8-(2-ethyl-4-(trifluoromethyl)phenyl)-9-(4-((1-(3-fluoropropyl)azetidin-3-yl)methyl)phenyl)-6,7-dihydro-5H-benzo[7]annulene-3-carboxylic acid]	91%
COc1cc(C(F)(F)F)ccc1C1=C(c2ccc(CC3CN(CCCF)C3)cc2)c2ccc(C(=O)O)cc2CCC1.Cl [Compound 16, 9-(4-((1-(3-fluoropropyl)azetidin-3-yl)methyl)phenyl)-8-(2-methoxy-4-(trifluoromethyl)phenyl)-6,7-dihydro-5H-benzo[7]annulene-3-carboxylic acid, hydrochloride]	92%
O=C(O)c1ccc2c(c1)CCCC(C1CCC(CO)C1)=C2c1ccc(CC2CN(CCCF)C2)cc1 (centres unmarked) [Compound 3, 9-(4-((1-(3-fluoropropyl)azetidin-3-yl)methyl)phenyl)-8-(3-(hydroxymethyl)cyclopentyl)-6,7-dihydro-5H-benzo[7]annulene-3-carboxylic acid]	77%
